Experimental data taken from paper PMC7482436, “Optopharmacology reveals a differential contribution of native GABAA receptors to dendritic and somatic inhibition using azogabazine” (Neuropharmacology, 2020).
Where two headings read alike, the source gives them in different places.

Experiments:
cerebellar granule cells [1] = assay: Current clamp of action potential firing in cultured cerebellar granule cells with membrane-delimited UV spot; assay type: cell-based, Sprague Dawley rats; details: 1 μM azogabazine; for inhibition at 1 µM: Rattus norvegicus
Experimental: Dissociated cerebellar cultures were prepared from cerebellar tissue taken from postnatal day 4 (P4) Sprague Dawley rats. Tissue blocks were incubated in trypsin for 10 min (0.1% w/v), washed in Hanks Balanced Salt Solution (HBSS), and then triturated in DNase (0.05% w/v in 12 mM MgSO4). Cells were plated on poly-L-ornithine coated 22 mm glass coverslips in Basal Medium Eagle (BME) supplemented with 0.5% (w/v) glucose, 5 mg/l insulin, 5 mg/l transferrin, 5 mg/l selenium, 20 u/ml penicillin-G and 20 μg/ml streptomycin, 0.2 mM glutamine, 1.2 mM NaCl, and 5% (v/v) fetal calf serum. The neuronal culture was then allowed to develop for 7–10 days at 37 °C in humidified air with 5% CO2 before used for experiments.
To initiate photo-isomerization of azogabazine, optical light paths were used to convey UV laser (Obis [375 nm], Coherent Inc., Santa Clara, USA) or blue LED light (OptoLED [470 nm], Cairn Research Ltd, Faversham, U.K.) through a variable diaphragm (for setting the illuminated spot-diameter), and finally through a water-immersion objective (Nikon, NIR Apo 40×/0.8w) to the cells. The diaphragm was kept fully open for whole cell light exposure experiments and reduced to generate small spots (~8–12 μm) when exposing soma or proximal dendritic areas. The illuminated spot size and position could be adjusted during experiments. Whereas the blue LED could be operated at high power (8.1 mW) during experiments, the UV laser output was empirically adjusted to 2 mW (4% of maximum operating power) to avoid cell damage, but still sufficient to adequately azogabazine isomerization. To adjust the size and position of the illuminated spot, a 440 nm white LED pilot light and a 515 nm long-pass filter were used before switching to UV or blue light.
IPSCs from cerebellar granule cells were detected post-hoc using WinEDR 3.5.6, and analysed for frequency, amplitude, rise time and weighted decay tau using WinWCP 4.9.6. Action potentials from cerebellar granule cells were recorded under current-clamp and were similarly detected with WinEDR 3.5.6. Data were subjected to statistical analyses (ANOVA, paired and unpaired Student t-tests).
To assess neuronal excitability and GABA inhibition, current clamp recordings were performed from cultured granule cells to monitor action potential generation in the presence of 1 μM azogabazine before and after applying UV light.

[2] = 1H NMR of cis:trans isomer ratio and isomer stability under different light conditions; assay type: physicochemical
Experimental: For most of the study azogabazine was kept in darkness to ensure a stock of near-100% trans-isomer. Unless stated otherwise, experiments were performed in near-darkness (under red light) when making azogabazine stocks (1 mM stock solution in DMSO), and when pre-exposing stock solutions to UV or blue light using wavelength specific LEDs. Pre-exposure of azogabazine (stock) to UV or blue light was undertaken by positioning a UV (365 nm) or blue (470 nm) OptoLED (Cairn Research Ltd, Faversham, UK) 2–3 mm above a 500 μl droplet on parafilm and exposing for 2 min at maximum light intensity to ensure attainment of equilibrium between cis and trans isomers. The UV LED was operated at 1.2 A to achieve a light intensity output at the surface of the droplet of 5.3 mW. By comparison, the Blue LED was run at 0.9 A for a light intensity output of 8.1 mW at the surface of the droplet.
To physically assess the photo-conversion efficiency between the cis and trans isomers we determined the proton (^1H)-NMR spectra for azogabazine ([…]) in deuterated DMSO under different light conditions. Initially, azogabazine was retained in complete darkness for >14 days and then stored under similar dark conditions. This drove the cis:trans equilibrium almost completely towards the more thermodynamically stable trans isomer (Fig. 1C). […] By integrating the ^1H NMR spectra, long-term darkness produced ~100% of trans-azogabazine, whereas the UV (365 nm) exposure produced an equilibrium of ~85% cis to 15% trans isomers. […] Thus, switching the wavelength of light produced substantive photoisomerisation of azogabazine.
Fig. 2 Azogabazine isomerization and isomer stability. (A), Stability plot for the cis-isomer for non-dark adapted azogabazine samples exposed to different wavelengths of light: λ 365, 405, 470, 530, 565 nm, and near-infrared (NR), prior to ^1H NMR. […] A long (60 s) period of UV-exposure was needed to reach a maximal equilibrium conversion ratio of ~85 : 15% for cis: trans isomers. […] (B), The stability of a UV exposed and established cis: trans ratio is dependent on subsequent storage conditions. If the UV-exposed sample is subsequently kept in ambient light (blue line), the cis:trans ratio changes over ~ 2–4 h towards ~25% cis: 75% trans remaining stable over 10 days (dashed blue line). By contrast, the UV-exposed sample remained stable (~85% cis: 15% trans) over 24 h if subsequently kept in darkness (red line). However, over 10 days, conversion to a predominant trans-form was evident (dashed red line). Finally, when a sample which had been kept in ambient light (~25% cis: 75% trans) was then placed and stored in darkness, it remained stable over 24 h (green line) but slowly converted again to the trans form over 10 days (dashed green line).
To investigate the dynamic relationship between the two azogabazine isomers, we investigated the effect of azogabazine in solution under conditions that result in three different ratios of trans: cis isomers. These included: a dark-adapted solution (trans 100: cis 0%); one pre-exposed for 60 s to blue light (trans 75: cis 25%); and a third exposed for the same duration to UV light (trans 15: cis 85%). […] All subsequent experiments were performed in near-darkness and within 3 h after the trans: cis ratios were established to ensure the stability of the isomers during experimentation. […] The later provides assurance as to the relative time stability of the cis and trans isoforms of azogabazine.

α1β2γ2L GABAARs [3] = biological target: T1, α1β2γ2L GABAARs (Mus musculus, UniProt P62812+P63137); assay: Whole-cell patch clamp of GABA currents, recombinant α1β2γ2L GABAARs in HEK293 cells; assay type: cell-based, murine; details: for IC50: 10 μM GABA
T1 construct: expressed in transfected cells; host or cells: HEK293

cerebellar granule cells [4] = assay: Voltage clamp of GABA-mediated IPSCs in cultured cerebellar granule cells with membrane-delimited UV spot; assay type: cell-based, Sprague Dawley rats; details: for mean IPSC amplitude recovered with UV light / IPSC frequency normalised to 100 μm^2 membrane area: 1 μM azogabazine; for mean IPSC amplitude recovered with UV light: −60 mV, n = 12
α1β2γ2L GABAARs [5] = biological target: T1, α1β2γ2L GABAARs; set-up: method as in Huckvale et al., 2016; details: normal ambient daylight; ref Huckvale et al., 2016; cited from earlier work
[6] = UV 365 nm exposure for 60 s, equilibrium
[7] = blue light 470 nm for 60 s, photostationary state

T1 sequence (P62812 28-455): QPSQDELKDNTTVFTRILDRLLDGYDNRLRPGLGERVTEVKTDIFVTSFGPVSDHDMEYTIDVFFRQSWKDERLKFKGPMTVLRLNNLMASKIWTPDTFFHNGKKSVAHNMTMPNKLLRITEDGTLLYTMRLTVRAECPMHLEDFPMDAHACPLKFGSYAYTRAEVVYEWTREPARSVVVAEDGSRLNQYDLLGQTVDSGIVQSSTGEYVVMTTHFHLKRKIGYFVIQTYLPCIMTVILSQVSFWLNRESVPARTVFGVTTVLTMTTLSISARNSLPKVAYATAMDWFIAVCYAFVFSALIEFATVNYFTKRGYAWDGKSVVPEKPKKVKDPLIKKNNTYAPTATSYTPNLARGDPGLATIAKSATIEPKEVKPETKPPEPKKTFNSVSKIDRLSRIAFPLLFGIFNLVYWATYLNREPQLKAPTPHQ
T1 sequence (P63137 25-512 limits assumed): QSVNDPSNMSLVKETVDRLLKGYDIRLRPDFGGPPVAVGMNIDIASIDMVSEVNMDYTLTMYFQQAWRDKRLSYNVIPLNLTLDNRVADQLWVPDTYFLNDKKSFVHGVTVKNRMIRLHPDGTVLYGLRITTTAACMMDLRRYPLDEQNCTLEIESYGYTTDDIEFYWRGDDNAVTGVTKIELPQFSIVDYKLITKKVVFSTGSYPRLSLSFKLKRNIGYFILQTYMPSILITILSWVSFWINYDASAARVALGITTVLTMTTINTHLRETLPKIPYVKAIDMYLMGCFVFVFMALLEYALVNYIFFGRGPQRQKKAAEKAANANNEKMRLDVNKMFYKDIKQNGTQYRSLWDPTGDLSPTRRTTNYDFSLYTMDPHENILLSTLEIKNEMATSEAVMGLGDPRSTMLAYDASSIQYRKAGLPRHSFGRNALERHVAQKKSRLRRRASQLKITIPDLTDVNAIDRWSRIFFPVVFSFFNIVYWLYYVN
T1 sequence (P22723 39-474 partner): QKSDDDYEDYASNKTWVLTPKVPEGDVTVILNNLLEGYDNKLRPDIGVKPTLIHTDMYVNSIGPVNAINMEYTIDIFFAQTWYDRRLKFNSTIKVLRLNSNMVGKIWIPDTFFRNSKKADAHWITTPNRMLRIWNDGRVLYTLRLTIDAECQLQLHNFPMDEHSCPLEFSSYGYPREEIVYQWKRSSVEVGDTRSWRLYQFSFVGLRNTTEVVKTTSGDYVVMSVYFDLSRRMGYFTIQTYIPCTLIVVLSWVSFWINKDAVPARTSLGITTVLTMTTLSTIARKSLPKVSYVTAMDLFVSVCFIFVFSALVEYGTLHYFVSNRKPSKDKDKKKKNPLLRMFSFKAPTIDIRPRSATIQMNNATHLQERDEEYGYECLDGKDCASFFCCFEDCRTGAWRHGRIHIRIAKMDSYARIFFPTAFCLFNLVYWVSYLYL

In the case of `N=c1ccc(-c2ccc(N=Nc3ccccc3)cc2)nn1CCCC(=O)O` [azogabazine], the spike frequency (cerebellar granule cells [1]; before UV) is reported as 8.4 ± 3.3 Hz, the burst frequency (cerebellar granule cells [1]; burst firing cells) is reported as 1.1 ± 0.3 Hz and the “individual spikes per burst” value (cerebellar granule cells [1]; burst firing cells) is reported as 11 ± 3. The inhibition at 1 µM (cerebellar granule cells [1]; UV on proximal dendritic zones, normalised to exposed area, read-out: inhibition of individual spike generation after UV isomerization) was 50 ± 17%, the inhibition at 1 µM (cerebellar granule cells [1]; UV on proximal dendritic zones, read-out: inhibition of spike burst generation after UV isomerization) was 60 ± 9% and the inhibition at 1 µM (cerebellar granule cells [1]; UV on somatic membrane, normalised to exposed area, read-out: inhibition of individual spike generation after UV isomerization) was 18 ± 3%. The inhibition at 1 µM (cerebellar granule cells [1]; UV on somatic membrane, read-out: inhibition of spike burst generation after UV isomerization) was 25 ± 3%, the cis isomer fraction [2, 6] was ~ 85% and the trans isomer fraction [2, 6] was 15%. For the same compound, the “time for UV-established cis:trans ratio to change towards ~25% cis: 75% trans” value ([2]; UV-exposed sample kept in ambient light) was 2 to 4 h, the cis isomer fraction [2, 7] was 25% and the trans isomer fraction [2, 7] was “approximately 75%”. For the same compound, the trans isomer fraction ([2]; long-term darkness, deuterated DMSO) was ~ 100%, the “block of GABA current” value (α1β2γ2L GABAARs [3]; 1 μM azogabazine co-applied with 10 μM GABA, ambient daylight) was “near complete block” and the remaining activity at 1 µM (α1β2γ2L GABAARs [3]; HEK293, read-out: GABA current recovery during UV light exposure, % of control GABA current, 1 μM azogabazine (not dark-adapted) + 10 μM GABA, UV light, n = 8) was 64 ± 9%. The remaining activity at 1 µM (α1β2γ2L GABAARs [3]; HEK293, 1 μM azogabazine (not dark-adapted) + 10 μM GABA, blue light, n = 8, read-out: GABA current during blue light exposure, % of control) was 6 ± 3%, the IC50 (α1β2γ2L GABAARs [3]; UV pre-exposed azogabazine (365 PE, ~15% trans)) was 0.104 µM and the IC50 (α1β2γ2L GABAARs [3]; dark-adapted azogabazine (~100% trans), wild-type) was 0.0211 µM. For the same compound, the “inhibitory potency of dark-adapted versus UV pre-exposed azogabazine” value (α1β2γ2L GABAARs [3]; dark-adapted higher than UV pre-exposed) was 5 fold, the “block of GABA-mediated IPSCs” value (cerebellar granule cells [4]; 1 μM azogabazine (saturating), dark-adapted) was “rapidly blocked all the GABA-mediated IPSCs” and the “mean IPSC amplitude recovered with UV light” value (cerebellar granule cells [4]; UV spot directed to soma) was −74 ± 16 pA. The “IPSC frequency normalised to 100 μm^2 membrane area” value (cerebellar granule cells [4]; UV spot on proximal dendrites) was 4.2 ± 0.9 Hz, the “mean IPSC amplitude recovered with UV light” value (cerebellar granule cells [4]; UV spot on proximal dendritic zones) was −41 ± 7 pA and the “IPSC frequency normalised to 100 μm^2 membrane area” value (cerebellar granule cells [4]; UV spot on soma) was 1.8 ± 0.3 Hz. For the same compound, the IC50 (α1β2γ2L GABAARs [5]) was 0.0226 µM and the pIC50 (α1β2γ2L GABAARs [5]) was 7.65 ± 0.14.
